The record followed here is patent publication US20250017914A1, “6-AZA-QUINOLINE DERIVATIVES AND RELATED USES” (Black Diamond Therapeutics, Inc., priority 2021, published 2025).

Bounds are passed on as bounds.

The target in this assay is T1, BaF3 BRAF-KIAA1549 fusion cells (Homo sapiens, UniProt P15056).
T1 construct: The BRAF-KIAA1549 fusion mutant was subcloned into pMXs-IRES-Blasticidin (RTV-016, Cell Biolabs, San Diego, CA); No tag given; Q9HCM3 (UPF0606 protein KIAA1549)
T1 sequence (P15056 whole entry, change not shown, the tested form may be a part): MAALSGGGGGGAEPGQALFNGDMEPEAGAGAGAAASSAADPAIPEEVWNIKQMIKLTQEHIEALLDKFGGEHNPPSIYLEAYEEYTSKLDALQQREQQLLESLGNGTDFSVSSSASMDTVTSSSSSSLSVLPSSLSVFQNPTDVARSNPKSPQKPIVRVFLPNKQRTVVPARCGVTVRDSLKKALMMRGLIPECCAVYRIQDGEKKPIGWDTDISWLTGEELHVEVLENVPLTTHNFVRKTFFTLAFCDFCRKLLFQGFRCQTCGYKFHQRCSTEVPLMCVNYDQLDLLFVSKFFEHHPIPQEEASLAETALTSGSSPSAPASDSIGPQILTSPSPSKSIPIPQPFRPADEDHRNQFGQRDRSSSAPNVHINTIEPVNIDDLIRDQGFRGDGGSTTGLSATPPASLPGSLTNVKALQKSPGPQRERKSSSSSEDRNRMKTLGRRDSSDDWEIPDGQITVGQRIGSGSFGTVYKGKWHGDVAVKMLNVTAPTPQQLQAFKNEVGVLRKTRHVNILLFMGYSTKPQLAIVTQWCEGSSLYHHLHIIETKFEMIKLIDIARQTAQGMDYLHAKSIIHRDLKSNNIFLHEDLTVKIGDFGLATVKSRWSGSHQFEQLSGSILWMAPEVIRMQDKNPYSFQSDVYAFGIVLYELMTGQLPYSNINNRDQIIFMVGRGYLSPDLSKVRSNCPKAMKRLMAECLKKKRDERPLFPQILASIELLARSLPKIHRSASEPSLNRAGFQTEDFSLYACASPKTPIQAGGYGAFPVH
Kind of assay: BaF3 BRAF-KIAA1549 fusion cell proliferation assay (CellTiterGlo, 96 hours). The format is cell-based. The note with it: Table A2. The method, boiled down:
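BaF3 cells retrovirally transduced with BRAF-KIAA1549 fusion and blasticidin-selected were plated at 7×10^4 c/well in RPMI, 10% heat-inactivated FBS, 1% L-glutamine, and exposed to compound for 96 hours. Growth was read as ATP content by CellTiterGlo luminescence. IC50 was fitted by Levenberg-Marquardt, normalised to DMSO-treated cells.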
In general terms: Cellular ATP, detected with luciferase, serves as a proxy for viable cell number.
For the molecule `CNc1cc2ncc(-c3cc(NC(=O)c4n[nH]c5c4CCCC5)cnc3C)cc2cn1` [Compound 229, N-(6-methyl-5-(7-(methylamino)-1,6-naphthyridin-3-yl)pyridin-3-yl)-4,5,6,7-tetrahydro-1H-indazole-3-carboxamide], the GI50 is 20 to 100 nM.

Regarding `CNc1cc2ncc(-c3cc(NC(=O)c4cnc5n4CCCCC5)cnc3C)cc2cn1` [Compound 232, N-(6-methyl-5-(7-(methylamino)-1,6-naphthyridin-3-yl)pyridin-3-yl)-6,7,8,9-tetrahydro-5H-imidazo[1,2-a]azepine-3-carboxamide], the 50% growth inhibitory concentration (GI50) fell in the range of 100 to 500 nM.

With `CNc1cc2ncc(-c3cc(NC(=O)c4nn(C)c5c4CCCC5)cnc3C)cc2cn1` [Compound 233, 1-methyl-N-(6-methyl-5-(7-(methylamino)-1,6-naphthyridin-3-yl)pyridin-3-yl)-4,5,6,7-tetrahydro-1H-indazole-3-carboxamide], the GI50 was 20 to 100 nM.

`CNc1cc2ncc(-c3cc(NC(=O)c4csc5c4CCCC5)cnc3C)cc2cn1` [Compound 234, N-(6-methyl-5-(7-(methylamino)-1,6-naphthyridin-3-yl)pyridin-3-yl)-4,5,6,7-tetrahydrobenzo[b]thiophene-3-carboxamide] showed a GI50 of 20 to 100 nM.

Turning to `CNc1cc2ncc(-c3cc(NC(=O)c4csc5c4CCC(C)C5)cnc3C)cc2cn1` (stereo not drawn) [Compound 235, 6-methyl-N-(6-methyl-5-(7-(methylamino)-1,6-naphthyridin-3-yl)pyridin-3-yl)-4,5,6,7-tetrahydrobenzo[b]thiophene-3-carboxamide], the GI50 is 20 to 100 nM.

Take `CNc1cc2ncc(-c3cc(NC(=O)c4cnc5n4CC(C(F)F)CC5)ccc3C)cc2cn1` (stereo not drawn) [Compound 238, 6-(difluoromethyl)-N-(4-methyl-3-(7-(methylamino)-1,6-naphthyridin-3-yl)phenyl)-5,6,7,8-tetrahydroimidazo[1,2-a]pyridine-3-carboxamide]: the GI50 was in the range of 20 to 100 nM.

Consider `CNc1cc2ncc(-c3cc(NC(=O)c4cccc5c4OC(C)C5)cnc3C)cc2cn1` (stereo not drawn) [Compound 239, 2-methyl-N-(6-methyl-5-(7-(methylamino)-1,6-naphthyridin-3-yl)pyridin-3-yl)-2,3-dihydrobenzofuran-7-carboxamide], for which the GI50 is at least 500 nM.

Regarding `CNc1cc2ncc(-c3cc(NC(=O)c4cnn(CC(F)(F)F)c4C)cnc3C)cc2cn1` [Compound 240, 5-methyl-N-(6-methyl-5-(7-(methylamino)-1,6-naphthyridin-3-yl)pyridin-3-yl)-1-(2,2,2-trifluoroethyl)-1H-pyrazole-4-carboxamide], the GI50 is at least 500 nM.

Molecule `CNc1cc2ncc(-c3cc(NC(=O)c4noc5c4CC(C(C)(C)C)CC5)cnc3C)cc2cn1` (stereo not drawn) [Compound 241, 5-(tert-butyl)-N-(6-methyl-5-(7-(methylamino)-1,6-naphthyridin-3-yl)pyridin-3-yl)-4,5,6,7-tetrahydrobenzo[d]isoxazole-3-carboxamide] had a GI50 of 100 to 500 nM.

In turn, `CNc1cc2ncc(-c3cc(NC(=O)c4cc(C(O)CC(F)(F)F)ccn4)cnc3C)cc2cn1` (stereo not drawn) [Compound 242, N-(6-methyl-5-(7-(methylamino)-1,6-naphthyridin-3-yl)pyridin-3-yl)-4-(3,3,3-trifluoro-1-hydroxypropyl)picolinamide] yielded a GI50 of 20 to 100 nM.

With `CNc1cc2ncc(-c3cc(NC(=O)c4cnc5n4CC(C(F)(F)F)CC5)cnc3C)cc2cn1` (stereo not drawn) [Compound 243], the GI50 lay within 20 to 100 nM.

Turning to `CNc1cc2ncc(-c3cc(NC(=O)c4n[nH]c5c4CN(C)CC5)cnc3C)cc2cn1` [Compound 244, 5-methyl-N-(6-methyl-5-(7-(methylamino)-1,6-naphthyridin-3-yl)pyridin-3-yl)-4,5,6,7-tetrahydro-1H-pyrazolo[4,3-c]pyridine-3-carboxamide], the concentration for 50% growth inhibition (GI50) was at least 500 nM.

For `CNc1cc2ncc(-c3cc(NC(=O)c4noc5c4CCCCC5)cnc3C)cc2cn1` [Compound 245, N-(6-methyl-5-(7-(methylamino)-1,6-naphthyridin-3-yl)pyridin-3-yl)-5,6,7,8-tetrahydro-4H-cyclohepta[d]isoxazole-3-carboxamide], the GI50 lay in the range of 20 to 100 nM.

Consider `CNc1cc2ncc(-c3cc(NC(=O)c4noc5c4COCC5)cnc3C)cc2cn1` [Compound 246, N-(6-methyl-5-(7-(methylamino)-1,6-naphthyridin-3-yl)pyridin-3-yl)-6,7-dihydro-4H-pyrano[3,4-d]isoxazole-3-carboxamide], for which the GI50 was at least 500 nM.

Molecule `CNc1cc2ncc(-c3cc(NC(=O)c4noc5c4CC(F)(F)CC5)cnc3C)cc2cn1` [Compound 247, 5,5-difluoro-N-(6-methyl-5-(7-(methylamino)-1,6-naphthyridin-3-yl)pyridin-3-yl)-4,5,6,7-tetrahydrobenzo[d]isoxazole-3-carboxamide] had a GI50 of 20 to 100 nM.

`CNCC(F)(F)c1cccc(C(=O)Nc2cnc(C)c(-c3cnc4cc(NC)ncc4c3)c2)n1` [Compound 250, 6-(1,1-difluoro-2-(methylamino)ethyl)-N-(6-methyl-5-(7-(methylamino)-1,6-naphthyridin-3-yl)pyridin-3-yl)picolinamide]: the GI50 was at least 500 nM.

As for `CNc1cc2ncc(-c3cc(NC(=O)c4cnc5n4CC(C(F)F)CC5)cnc3C)cc2cn1` (stereo not drawn) [Compound 251, 6-(difluoromethyl)-N-(6-methyl-5-(7-(methylamino)-1,6-naphthyridin-3-yl)pyridin-3-yl)-5,6,7,8-tetrahydroimidazo[1,2-a]pyridine-3-carboxamide], the GI50 lay in the range of 100 to 500 nM.

On to `CNc1cc2ncc(-c3cc(NC(=O)c4n[nH]c5c4C[C@@H]4C[C@H]54)cnc3C)cc2cn1` [Compound 252, (4aS,5aS)—N-(6-methyl-5-(7-(methylamino)-1,6-naphthyridin-3-yl)pyridin-3-yl)-4,4a,5,5a-tetrahydro-1H-cyclopropa[4,5]cyclopenta[1,2-c]pyrazole-3-carboxamide], for which the GI50 lay within 20 to 100 nM.

For the molecule `CNc1cc2ncc(-c3cc(NC(=O)c4n[nH]c5c4C[C@H]4C[C@@H]54)cnc3C)cc2cn1` [Compound 253, (4aR,5aR)—N-(6-methyl-5-(7-(methylamino)-1,6-naphthyridin-3-yl)pyridin-3-yl)-4,4a,5,5a-tetrahydro-1H-cyclopropa[4,5]cyclopenta[1,2-c]pyrazole-3-carboxamide], the GI50 fell in the range of 20 to 100 nM.

In turn, `CNc1cc2ncc(-c3cc(NC(=O)c4noc5c4CN(C(C)C)CC5)cnc3C)cc2cn1` [Compound 254, 5-isopropyl-N-(6-methyl-5-(7-(methylamino)-1,6-naphthyridin-3-yl)pyridin-3-yl)-4,5,6,7-tetrahydroisoxazolo[4,5-c]pyridine-3-carboxamide] yielded a GI50 of 100 to 500 nM.

`CNc1cc2ncc(-c3cc(NC(=O)c4cc(C(C)(C)C(N)=O)ccn4)ccc3C)cc2cn1` [Compound 255] registered a GI50 of 20 to 100 nM.

`CNc1cc2ncc(-c3cc(NC(=O)c4nccc(C(C)C)c4Cl)cnc3C)cc2cn1` [Compound 256, 3-chloro-4-isopropyl-N-(6-methyl-5-(7-(methylamino)-1,6-naphthyridin-3-yl)pyridin-3-yl)picolinamide] had a GI50 of 20 to 100 nM.

As for `CNc1cc2ncc(-c3cc(NC(=O)c4noc5c4CC(C)(C)CC5)cnc3C)cc2cn1` [Compound 257, 5,5-dimethyl-N-(6-methyl-5-(7-(methylamino)-1,6-naphthyridin-3-yl)pyridin-3-yl)-4,5,6,7-tetrahydrobenzo[d]isoxazole-3-carboxamide], the GI50 was 20 to 100 nM.

As to `CCC(OC)c1ccnc(C(=O)Nc2cnc(C)c(-c3cnc4cc(NC)ncc4c3)c2)c1` (stereo not drawn) [Compound 260, 4-(1-methoxypropyl)-N-(6-methyl-5-(7-(methylamino)-1,6-naphthyridin-3-yl)pyridin-3-yl)picolinamide], the GI50 fell in the range of 20 to 100 nM.

In turn, `CNc1cc2ncc(-c3cc(NC(=O)c4n[nH]c5c4CC(C)CC5)ccc3C)cc2cn1` (stereo not drawn) [Compound 261, 5-methyl-N-(4-methyl-3-(7-(methylamino)-1,6-naphthyridin-3-yl)phenyl)-4,5,6,7-tetrahydro-1H-indazole-3-carboxamide] came in with a GI50 below 20 nM.

With `CNc1cc2ncc(-c3cc(NC(=O)c4n[nH]c5c4CCCC5(C)C)ccc3C)cc2cn1` [Compound 262, 7,7-dimethyl-N-(4-methyl-3-(7-(methylamino)-1,6-naphthyridin-3-yl)phenyl)-4,5,6,7-tetrahydro-1H-indazole-3-carboxamide], the 50% growth inhibitory concentration (GI50) fell in the range of 20 to 100 nM.

`CNc1cc2ncc(-c3cc(NC(=O)c4c[nH]c5ccc(C)cc45)ccc3C)cc2cn1` [Compound 263, 5-methyl-N-(4-methyl-3-(7-(methylamino)-1,6-naphthyridin-3-yl)phenyl)-1H-indole-3-carboxamide] returned a GI50 below 20 nM.

Turning to `CNc1cc2ncc(-c3cc(NC(=O)c4n[nH]c5c4C[C@H](C)O[C@@H]5C)ccc3C)cc2cn1` [Compound 264, (5S,7R)-5,7-dimethyl-N-(4-methyl-3-(7-(methylamino)-1,6-naphthyridin-3-yl)phenyl)-1,4,5,7-tetrahydropyrano[3,4-c]pyrazole-3-carboxamide], the GI50 is 20 to 100 nM.

Molecule `CNc1cc2ncc(-c3cc(NC(=O)c4cnn5c4CC(C)CC5)ccc3C)cc2cn1` (stereo not drawn) [Compound 265, 5-methyl-N-(4-methyl-3-(7-(methylamino)-1,6-naphthyridin-3-yl)phenyl)-4,5,6,7-tetrahydropyrazolo[1,5-a]pyridine-3-carboxamide] returned a GI50 below 20 nM.

Regarding `CNc1cc2ncc(-c3cc(NC(=O)c4c[nH]c5c4CC(C)CC5)ccc3C)cc2cn1` (stereo not drawn) [Compound 266, 5-methyl-N-(4-methyl-3-(7-(methylamino)-1,6-naphthyridin-3-yl)phenyl)-4,5,6,7-tetrahydro-1H-indole-3-carboxamide], the GI50 was 20 to 100 nM.

A word on the GI50: it is the concentration at which growth is held to half of that of the control. The low end stands for more potent growth inhibition, the high end for less potent growth inhibition.
